The supplement of paper PMC8617591

What was measured:
[1] = tested on: Mycobacterium tuberculosis Erdman (autoluminescent); assay: total FIC50 (Loewe) at 50% inhibition, three-drug combination (log2); higher = more antagonistic
Experimental: (§1)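 DiaMOND equipotent three-drug combination dose responses (10 doses, 1.5- or 2-fold spacing, centred on IC90) against autoluminescent M. tuberculosis Erdman in 8 in vitro models. Read-out is OD600, or luminescence for the intracellular and dormancy models, normalised to untreated wells. Hill-fit Einf, AUC25 and GRinf are potency metrics; FIC50 and FIC90 are total Loewe fractional inhibitory concentrations as log2 (negative = synergy).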

[2] = tested on: Mycobacterium tuberculosis Erdman (autoluminescent); assay: total FIC90 (Loewe) at 90% inhibition, three-drug combination (log2); higher = more antagonistic
Experimental: as §1

[3] = tested on: Mycobacterium tuberculosis Erdman (autoluminescent); assay: Einf, fitted maximum growth inhibition of three-drug combination (fraction); higher = stronger maximal inhibition
Experimental: as §1

[4] = tested on: Mycobacterium tuberculosis Erdman (autoluminescent); assay: AUC25, normalised area under dose response up to IC25 (three-drug combination) (fraction (0-1)); higher = more potent at low dose
Experimental: as §1

[5] = tested on: Mycobacterium tuberculosis Erdman (autoluminescent); assay: GRinf, maximum normalised growth rate inhibition (three-drug combination) (unitless (-1 to 1)); higher = less effect (negative = killing)
Experimental: as §1

COc1nc2ccc(Br)cc2cc1[C@@H](c1ccccc1)[C@@](O)(CCN(C)C)c1cccc2ccccc12 [bedaquiline] + CC[C@@H](CO)NCCN[C@@H](CC)CO [ethambutol] + CO[C@H]1/C=C/O[C@@]2(C)Oc3c(C)c(O)c4c(O)c(c(/C=N/N5CCN(C6CCCC6)CC5)c(O)c4c3C2=O)NC(=O)/C(C)=C\C=C\[C@H](C)[C@H](O)[C@@H](C)[C@@H](O)[C@@H](C)[C@H](OC(C)=O)[C@@H]1C [rifapentine]
Conditions	AUC25, [4]	Einf, [3]	GRinf, [5]	total FIC50, [1]	total FIC90, [2]
in vitro model: acidic pH 5.7, time point: constant (~7 days, model-specific)	0.114	0.961	-0.423	-0.16	–
in vitro model: acidic pH 5.7, time point: terminal (~4-5 doublings, model-specific)	0.0469	0.98	-0.179	0.232	-0.455
in vitro model: intracellular J774, time point: constant = terminal	–	0.947	-0.165	–	-1.85

Conditions	AUC25, [4]	Einf, [3]	GRinf, [5]	total FIC50, [1]	total FIC90, [2]
in vitro model: butyrate, time point: constant (~7 days, model-specific)	0.0669	0.935	-0.0718	0.486	–
in vitro model: butyrate, time point: terminal (~4-5 doublings, model-specific)	0.0551	0.972	-0.0579	0.432	-0.198
in vitro model: cholesterol 0.05 mM, time point: constant (~7 days, model-specific)	0.0736	0.7	-0.229	0.896	–
in vitro model: cholesterol 0.05 mM, time point: terminal (~4-5 doublings, model-specific)	0.0689	0.896	-0.175	1	–
in vitro model: cholesterol-high 0.2 mM, time point: constant (~7 days, model-specific)	0.0263	0.996	-0.736	1.12	–
in vitro model: cholesterol-high 0.2 mM, time point: terminal (~4-5 doublings, model-specific)	0.0449	0.998	-0.697	1.03	1.09
in vitro model: dormancy (butyrate + nitrate, low O2), time point: constant (~7 days, model-specific)	0.125	0.891	0.428	1.06	–
in vitro model: dormancy (butyrate + nitrate, low O2), time point: terminal (~4-5 doublings, model-specific)	0.105	0.982	-0.0507	0.39	0.33
in vitro model: standard 7H9 glycerol, time point: constant = terminal	0.0577	0.931	0.00717	0.213	–
in vitro model: valerate, time point: constant (~7 days, model-specific)	0.0547	0.887	-0.0669	0.793	–
in vitro model: valerate, time point: terminal (~4-5 doublings, model-specific)	0.0403	0.948	-0.0709	0.823	-0.0548

COc1nc2ccc(Br)cc2cc1[C@@H](c1ccccc1)[C@@](O)(CCN(C)C)c1cccc2ccccc12 [bedaquiline] + CC[C@@H](CO)NCCN[C@@H](CC)CO [ethambutol] + CO[C@H]1/C=C/O[C@@]2(C)Oc3c(C)c(O)c4c(O)c(c(/C=N/N5CCN(C)CC5)c(O)c4c3C2=O)NC(=O)/C(C)=C\C=C\[C@H](C)[C@H](O)[C@@H](C)[C@@H](O)[C@@H](C)[C@H](OC(C)=O)[C@@H]1C [rifampicin]
Conditions	AUC25, [4]	Einf, [3]	GRinf, [5]	total FIC50, [1]	total FIC90, [2]
in vitro model: acidic pH 5.7, time point: constant (~7 days, model-specific)	0.101	0.925	-0.517	0.255	–
in vitro model: acidic pH 5.7, time point: terminal (~4-5 doublings, model-specific)	0.0469	0.975	-0.16	0.433	-0.353
in vitro model: intracellular J774, time point: constant = terminal	–	0.946	-0.188	–	-2.17

Conditions	AUC25, [4]	Einf, [3]	GRinf, [5]	total FIC50, [1]	total FIC90, [2]
in vitro model: butyrate, time point: constant (~7 days, model-specific)	0.0854	0.947	-0.116	0.298	–
in vitro model: butyrate, time point: terminal (~4-5 doublings, model-specific)	0.0653	0.977	-0.0944	0.293	-0.34
in vitro model: cholesterol 0.05 mM, time point: constant (~7 days, model-specific)	0.0934	0.696	-0.186	0.99	–
in vitro model: cholesterol 0.05 mM, time point: terminal (~4-5 doublings, model-specific)	0.0802	0.866	-0.177	0.757	–
in vitro model: cholesterol-high 0.2 mM, time point: constant (~7 days, model-specific)	0.0442	0.972	-0.609	0.869	–
in vitro model: cholesterol-high 0.2 mM, time point: terminal (~4-5 doublings, model-specific)	0.0471	0.999	-0.732	0.649	0.577
in vitro model: dormancy (butyrate + nitrate, low O2), time point: constant (~7 days, model-specific)	0.0847	0.848	0.506	0.302	–
in vitro model: dormancy (butyrate + nitrate, low O2), time point: terminal (~4-5 doublings, model-specific)	0.0367	0.985	-0.0366	0.467	-0.773
in vitro model: standard 7H9 glycerol, time point: constant = terminal	0.0718	0.936	-0.0564	0.162	–
in vitro model: valerate, time point: constant (~7 days, model-specific)	0.0696	0.904	-0.043	0.575	–
in vitro model: valerate, time point: terminal (~4-5 doublings, model-specific)	0.0304	0.944	-0.0659	0.707	-0.531

COc1nc2ccc(Br)cc2cc1[C@@H](c1ccccc1)[C@@](O)(CCN(C)C)c1cccc2ccccc12 [bedaquiline] + CC[C@@H](CO)NCCN[C@@H](CC)CO [ethambutol] + COc1c(N2C[C@@H]3CCCN[C@@H]3C2)c(F)cc2c(=O)c(C(=O)O)cn(C3CC3)c12 [moxifloxacin]
Conditions	AUC25, [4]	Einf, [3]	GRinf, [5]	total FIC50, [1]	total FIC90, [2]
in vitro model: acidic pH 5.7, time point: constant (~7 days, model-specific)	0.0871	0.818	-0.484	0.542	–
in vitro model: acidic pH 5.7, time point: terminal (~4-5 doublings, model-specific)	0.0798	0.968	-0.239	0.896	0.318
in vitro model: intracellular J774, time point: constant = terminal	–	0.951	-0.177	–	-0.597

Conditions	AUC25, [4]	Einf, [3]	GRinf, [5]	total FIC50, [1]	total FIC90, [2]
in vitro model: butyrate, time point: constant (~7 days, model-specific)	0.0669	0.943	-0.107	0.634	–
in vitro model: butyrate, time point: terminal (~4-5 doublings, model-specific)	0.0565	0.976	-0.091	0.608	0.135
in vitro model: cholesterol 0.05 mM, time point: constant (~7 days, model-specific)	0.0787	0.746	-0.304	0.605	–
in vitro model: cholesterol 0.05 mM, time point: terminal (~4-5 doublings, model-specific)	0.0645	0.902	-0.132	1.36	0.517
in vitro model: cholesterol-high 0.2 mM, time point: constant (~7 days, model-specific)	0.0262	0.947	-0.654	1.13	–
in vitro model: cholesterol-high 0.2 mM, time point: terminal (~4-5 doublings, model-specific)	0.0315	1	-0.729	1.33	1.07
in vitro model: dormancy (butyrate + nitrate, low O2), time point: constant (~7 days, model-specific)	0.14	0.884	0.39	1.02	–
in vitro model: dormancy (butyrate + nitrate, low O2), time point: terminal (~4-5 doublings, model-specific)	0.114	0.987	-0.126	0.343	0.644
in vitro model: standard 7H9 glycerol, time point: constant = terminal	0.0556	0.955	-0.0832	0.482	0.479
in vitro model: valerate, time point: constant (~7 days, model-specific)	0.0922	0.906	-0.0299	0.726	–
in vitro model: valerate, time point: terminal (~4-5 doublings, model-specific)	0.0526	0.939	-0.0195	0.757	0.289
